Reference: paper PMC10247784, “Physiological activation of human and mouse bitter taste receptors by bile acids” (Communications Biology, 2023)
Values joined by “and” are separate entries in the source; they are usually repeats but may differ in a detail not shown here. Identical values can stand only once.

Biological target: T1, human TAS2R4 (Homo sapiens, UniProt Q9NYW5)
T1 construct: expressed in transfected cells; host or cells: HEK293T-Gα16gust44
T1 sequence (Q9NYW5 1-299): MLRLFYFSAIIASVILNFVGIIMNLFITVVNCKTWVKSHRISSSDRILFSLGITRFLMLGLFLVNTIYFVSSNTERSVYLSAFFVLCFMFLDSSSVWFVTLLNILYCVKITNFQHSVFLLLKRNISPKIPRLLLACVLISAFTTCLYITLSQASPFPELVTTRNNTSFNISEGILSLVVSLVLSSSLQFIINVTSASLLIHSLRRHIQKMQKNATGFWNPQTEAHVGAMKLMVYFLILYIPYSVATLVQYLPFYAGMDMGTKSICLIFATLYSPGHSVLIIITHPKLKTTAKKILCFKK
Assay: Calcium imaging assay (FLIPR), HEK293T-Gα16gust44 cells transfected with human TAS2R4
Assay type: cell-based
Method: This set of bile acids was chosen because of their commercial availability in high purities, their diversity within the class of bile acids and their previous detection and quantitation in human blood. Stock solutions were prepared in DMSO.
As basal growth medium for the HEK293T-Gα16gust44 cell line[17],[59] served Dulbecco’s modified eagle medium (DMEM) (Thermo Fisher Scientific, Darmstadt, Germany) supplemented with 10 % fetal bovine serum (Sigma-Aldrich, Steinheim, Germany), 2 mM L-glutamine (Sigma-Aldrich, Steinheim, Germany), 100 units/ml penicillin (Sigma Aldrich, Steinheim, Germany) and 100 µg/ml streptomycin (Sigma Aldrich, Steinheim, Germany). Growth conditions were 37 °C, 5 % CO2 and saturated air-humidity[60].
HEK293T-Gα16gust44 cells were seeded on poly-D-lysine (10 µg/ml) coated 96-well plates to reach a confluence of 40-60 % the next day. For transient transfection 150 ng of plasmid DNA containing the receptor of interest and 0.3 µl lipofectamine 2000 (Thermo Fisher Scientific, Darmstadt, Germany) per well were used and transfection took place according to the manual of lipofectamine 2000. […] The empty vector DNA (mock) was transfected as negative control[14],[41].
Cells were loaded using the calcium-sensitive fluorescent dye Fluo-4-AM (Abcam, Cambridge, Great Britain) in the presence of 2.5 mM probenecid (Sigma-Aldrich, Steinheim, Germany) the day after transfection[13],[41]. 1 h after loading, cells were washed with C1 buffer using a BioTek Cell Washer, incubated in the dark for half an hour and washed again. For automated agonist application and measurement of fluorescence changes, a FLIPR^TETRA device (Molecular Devices, San José, United States) was used. Viability of cells was tested by application of 100 nM Somatostatin 14 (Bachem, Bubendorf, Switzerland)[42].
Measured data were negative control corrected by subtracting the signal of the mock-transfected cells and exported to Microsoft Excel using the FLIPR software ScreenWorks 4.2. In Microsoft Excel software, standardization of maximum fluorescence intensities to the basal fluorescence and normalization to the buffer-only control was done to calculate the relative fluorescence changes (ΔF/F).
Initial screening experiments performed in duplicate wells were confirmed by at least one replication and representative traces were selected for display. All dose-response relationships were determined by three independent experiments (biological replicates) performed in duplicates (technical replicates). Threshold concentrations, defined as lowest substance concentrations leading to statistically significant elevated fluorescence changes in receptor-transfected cells compared with empty vector-transfected cells, were determined using SigmaPlot with Student’s t-test to evaluate statistical significance (p < 0.01).

## C[C@H](CCC(=O)NCCS(=O)(=O)O)[C@H]1CC[C@H]2[C@@H]3[C@H](O)C[C@@H]4C[C@H](O)CC[C@]4(C)[C@H]3C[C@H](O)[C@]12C [Taurocholic Acid, taurocholic acid]
TAS2R4, bile acids, mean
  Efficacy = maximal amplitude (ΔF/F): 0.1496
TAS2R4, bile acids, single replicates, listed as TCA
  Efficacy (maximal amplitude ΔF/F), individual data points: 0.127 and 0.1657 and 0.1561
TAS2R4, conc. 0,01 mM
  Δ F/F: 0.0134
TAS2R4, conc. 0,1 mM
  Δ F/F: 0.09538
TAS2R4, conc. 0,03 mM
  Δ F/F: 0.04001
TAS2R4, conc. 0,3 mM
  Δ F/F: 0.1496
TAS2R4, conc. 0,001 mM
  Δ F/F: 0.005857
TAS2R4, conc. 0,003 mM
  Δ F/F: 0.007034
Time (s) 0
  RLU, fluorescence trace: 0 RLU
Time (s) 2
  RLU, fluorescence trace: -24.6054 RLU
Time (s) 4
  RLU, fluorescence trace: 12.8274 RLU
Time (s) 6
  RLU, fluorescence trace: 3.789 RLU
Time (s) 8
  RLU, fluorescence trace: -20.122 RLU
Time (s) 12
  RLU, fluorescence trace: 7.77 RLU
Time (s) 14
  RLU, fluorescence trace: -34.8945 RLU
Time (s) 16
  RLU, fluorescence trace: -37.677 RLU
Time (s) 18
  RLU, fluorescence trace: -48.5281 RLU
Time (s) 18.766 (TCA, TLCA: 18.782)
  RLU, fluorescence trace: 30.085 RLU
Time (s) 20.781 (TCA, TLCA: 20.782)
  RLU, fluorescence trace: 9.231 RLU
Time (s) 22.781 (TCA, TLCA: 22.782)
  RLU, fluorescence trace: 3.151 RLU
Time (s) 24.781 (TCA, TLCA: 24.782)
  RLU, fluorescence trace: 34.1327 RLU
Time (s) 26.781 (TCA, TLCA: 26.782)
  RLU, fluorescence trace: 57.6073 RLU
Time (s) 28.781 (TCA, TLCA: 28.782)
  RLU, fluorescence trace: 122.11 RLU
Time (s) 30.781 (TCA, TLCA: 30.782)
  RLU, fluorescence trace: 164.035 RLU
Time (s) 32.781 (TCA, TLCA: 32.782)
  RLU, fluorescence trace: 242.016 RLU
Time (s) 34.781 (TCA, TLCA: 34.782)
  RLU, fluorescence trace: 272.716 RLU
Time (s) 36.781 (TCA, TLCA: 36.782)
  RLU, fluorescence trace: 320.809 RLU
Time (s) 38.781 (TCA, TLCA: 38.782)
  RLU, fluorescence trace: 384.052 RLU
Time (s) 40.781 (TCA, TLCA: 40.782)
  RLU, fluorescence trace: 404.135 RLU
Time (s) 42.781 (TCA, TLCA: 42.782)
  RLU, fluorescence trace: 433.94 RLU
Time (s) 44.781 (TCA, TLCA: 44.782)
  RLU, fluorescence trace: 475.477 RLU
Time (s) 46.781 (TCA, TLCA: 46.782)
  RLU, fluorescence trace: 493.347 RLU
Time (s) 48.781 (TCA, TLCA: 48.782)
  RLU, fluorescence trace: 501.503 RLU
Time (s) 50.781 (TCA, TLCA: 50.782)
  RLU, fluorescence trace: 547.521 RLU
Time (s) 52.781 (TCA, TLCA: 52.782)
  RLU, fluorescence trace: 553.791 RLU
Time (s) 54.781 (TCA, TLCA: 54.782)
  RLU, fluorescence trace: 588.235 RLU
Time (s) 56.781 (TCA, TLCA: 56.782)
  RLU, fluorescence trace: 548.835 RLU
Time (s) 58.781 (TCA, TLCA: 58.782)
  RLU, fluorescence trace: 588.475 RLU
Time (s) 60.781 (TCA, TLCA: 60.782)
  RLU, fluorescence trace: 601.608 RLU
Time (s) 62.781 (TCA, TLCA: 62.782)
  RLU, fluorescence trace: 626.215 RLU
Time (s) 64.781 (TCA, TLCA: 64.782)
  RLU, fluorescence trace: 626.188 RLU
Time (s) 66.781 (TCA, TLCA: 66.782)
  RLU, fluorescence trace: 619.641 RLU
Time (s) 68.781 (TCA, TLCA: 68.782)
  RLU, fluorescence trace: 624.108 RLU
Time (s) 70.781 (TCA, TLCA: 70.782)
  RLU, fluorescence trace: 638.032 RLU
Time (s) 72.781 (TCA, TLCA: 72.782)
  RLU, fluorescence trace: 646.123 RLU
Time (s) 74.781 (TCA, TLCA: 74.782)
  RLU, fluorescence trace: 657.793 RLU
Time (s) 76.781 (TCA, TLCA: 76.782)
  RLU, fluorescence trace: 666.37 RLU
Time (s) 78.781 (TCA, TLCA: 78.782)
  RLU, fluorescence trace: 678.287 RLU
Time (s) 80.781 (TCA, TLCA: 80.782)
  RLU, fluorescence trace: 665.284 RLU
Time (s) 82.781 (TCA, TLCA: 82.782)
  RLU, fluorescence trace: 655.873 RLU
Time (s) 84.781 (TCA, TLCA: 84.782)
  RLU, fluorescence trace: 679.941 RLU
Time (s) 86.781 (TCA, TLCA: 86.782)
  RLU, fluorescence trace: 648.406 RLU
Time (s) 88.781 (TCA, TLCA: 88.782)
  RLU, fluorescence trace: 644.228 RLU
Time (s) 90.781 (TCA, TLCA: 90.782)
  RLU, fluorescence trace: 650.88 RLU
Time (s) 92.781 (TCA, TLCA: 92.782)
  RLU, fluorescence trace: 631.638 RLU
Time (s) 94.781 (TCA, TLCA: 94.782)
  RLU, fluorescence trace: 665.026 RLU
Time (s) 96.781 (TCA, TLCA: 96.782)
  RLU, fluorescence trace: 673.234 RLU
Time (s) 98.781 (TCA, TLCA: 98.782)
  RLU, fluorescence trace: 653.956 RLU
Time (s) 100.781 (TCA, TLCA: 100.782)
  RLU, fluorescence trace: 661.771 RLU
Time (s) 102.781 (TCA, TLCA: 102.782)
  RLU, fluorescence trace: 636.296 RLU
Time (s) 104.781 (TCA, TLCA: 104.782)
  RLU, fluorescence trace: 641.127 RLU
Time (s) 106.781 (TCA, TLCA: 106.782)
  RLU, fluorescence trace: 615.791 RLU
Time (s) 108.781 (TCA, TLCA: 108.782)
  RLU, fluorescence trace: 618.091 RLU
Time (s) 110.781 (TCA, TLCA: 110.782)
  RLU, fluorescence trace: 644.691 RLU
Time (s) 112.781 (TCA, TLCA: 112.782)
  RLU, fluorescence trace: 640.87 RLU
Time (s) 114.781 (TCA, TLCA: 114.782)
  RLU, fluorescence trace: 609.041 RLU
Time (s) 116.781 (TCA, TLCA: 116.782)
  RLU, fluorescence trace: 616.307 RLU
Time (s) 118.781 (TCA, TLCA: 118.782)
  RLU, fluorescence trace: 584.502 RLU
Time (s) 120.781 (TCA, TLCA: 120.782)
  RLU, fluorescence trace: 602.866 RLU
Time (s) 122.781 (TCA, TLCA: 122.782)
  RLU, fluorescence trace: 581.164 RLU
Time (s) 124.781 (TCA, TLCA: 124.782)
  RLU, fluorescence trace: 578.218 RLU
Time (s) 126.781 (TCA, TLCA: 126.782)
  RLU, fluorescence trace: 564.916 RLU
Time (s) 128.781 (TCA, TLCA: 128.782)
  RLU, fluorescence trace: 590.827 RLU
Time (s) 130.781 (TCA, TLCA: 130.782)
  RLU, fluorescence trace: 571.073 RLU
Time (s) 132.781 (TCA, TLCA: 132.782)
  RLU, fluorescence trace: 555.387 RLU
Time (s) 134.781 (TCA, TLCA: 134.782)
  RLU, fluorescence trace: 548.858 RLU
Time (s) 136.781 (TCA, TLCA: 136.782)
  RLU, fluorescence trace: 535.742 RLU
Time (s) 137.547
  RLU, fluorescence trace: 524.559 RLU
Time (s) 143.547
  RLU, fluorescence trace: 525.352 RLU
Time (s) 149.547
  RLU, fluorescence trace: 486.955 RLU
Time (s) 155.547
  RLU, fluorescence trace: 493.52 RLU
Time (s) 161.547
  RLU, fluorescence trace: 446.448 RLU
Time (s) 167.547
  RLU, fluorescence trace: 435.019 RLU
Time (s) 173.547
  RLU, fluorescence trace: 386.716 RLU
Time (s) 179.547
  RLU, fluorescence trace: 393.434 RLU
Time (s) 185.547
  RLU, fluorescence trace: 372.463 RLU
Time (s) 191.547
  RLU, fluorescence trace: 357.243 RLU
Time (s) 197.547
  RLU, fluorescence trace: 314.74 RLU
Time (s) 203.547
  RLU, fluorescence trace: 318.63 RLU
Time (s) 209.547
  RLU, fluorescence trace: 306.856 RLU
Time (s) 215.547
  RLU, fluorescence trace: 260.931 RLU
Time (s) 221.547
  RLU, fluorescence trace: 241.962 RLU
Time (s) 227.547
  RLU, fluorescence trace: 290.972 RLU
Time (s) 233.547
  RLU, fluorescence trace: 269.304 RLU
Time (s) 239.547
  RLU, fluorescence trace: 267.596 RLU
Time (s) 245.547
  RLU, fluorescence trace: 219.689 RLU
Time (s) 293.547
  RLU, fluorescence trace: 189.99 RLU
Time (s) 299.547
  RLU, fluorescence trace: 175.107 RLU
Time (s) 305.547
  RLU, fluorescence trace: 192.603 RLU
Time (s) 311.547
  RLU, fluorescence trace: 188.074 RLU
Time (s) 317.547
  RLU, fluorescence trace: 199.388 RLU
Time (s) 323.547
  RLU, fluorescence trace: 170.101 RLU
Time (s) 329.547
  RLU, fluorescence trace: 196.926 RLU
Time (s) 335.547
  RLU, fluorescence trace: 162.738 RLU
Time (s) 341.547
  RLU, fluorescence trace: 164.861 RLU
Time (s) 347.547
  RLU, fluorescence trace: 156.987 RLU
Time (s) 353.547
  RLU, fluorescence trace: 175.115 RLU
Time (s) 359.547
  RLU, fluorescence trace: 151.684 RLU
Lowest concentration with significantly increased fluorescence vs empty vector (p < 0.01)
  Activation threshold concentration TAS2R4: 100 µM
